The target in experiment [1] is T1, human FGF-1 (flg) receptor tyrosine kinase (Homo sapiens, UniProt P11362).
T1 construct: amplify a fragment of DNA that codes for the intracellular tyrosine kinase domain; made in house; host or cells: SF9 insect cells (baculovirus)
Put plainly: FGF receptor tyrosine kinase assay (32P incorporation into glutamate-tyrosine co-polymer). Type of experiment: biochemical. The conditions noted are these: for inhibition at 50 µM: read-out: FGFr-TK % Inhibition at 50 µM; for pIC50: read-out: FGFr-TK IC50. The text has this: (§1) Full length cDNAs for the mouse PDGF-β and human FGF-1 (flg) receptor tyrosine kinases were obtained from J. Escobedo and prepared as described in J. Biol. Chem., 262:1482-1487 […], and PCR primers were designed to amplify a fragment of DNA that codes for the intracellular tyrosine kinase domain. The fragment was melded into a baculovirus vector, cotransfected with AcMNPV DNA, and the recombinant virus isolated. SF9 insect cells were infected with the virus to overexpress the protein, and the cell lysate was used for the assay. The assay was performed in 96-well plates (100 µL/incubation/well), and conditions were optimized to measure the incorporation of ^32P from γ^32P-ATP into a glutamate-tyrosine co-polymer substrate. Briefly, to each well was added 82.5 µL of incubation buffer containing 25 mM Hepes (pH 7.0), 150 mM NaCl, 0.1% Triton X-100, 0.2 mM PMSF, 0.2 mM Na3VO4, 10 mM MnCl2, and 750 µg/mL of Poly (4:1) glutamate-tyrosine followed by 2.5 µL of inhibitor and 5µL of enzyme lysate (7.5 µg/µL FGF-TK or 6.0 µg/µL PDGF-TK) to initiate the reaction. Following a 10 minute incubation at 25°C, 10 µL of γ^32P-ATP (0.4 µCi plus 50 µM ATP) was added to each well and samples were incubated for an additional 10 minutes at 25°C. The reaction was terminated by the addition of 100 µL of 30% trichloroacetic acid (TCA) containing 20 mM sodium pyrophosphate and precipitation of material onto glass fiber filter mats (Wallac). […] Nonspecific activity was defined as radioactivity retained on the filters following incubation of samples with buffer alone (no enzyme). Specific enzymatic activity was defined as total activity (enzyme plus buffer) minus nonspecific activity.

For experiment [2], the target named is T2, mouse PDGF-β receptor tyrosine kinase (Mus musculus, UniProt P05622).
T2 construct: amplify a fragment of DNA that codes for the intracellular tyrosine kinase domain; made in house; host or cells: SF9 insect cells (baculovirus)
T2 sequence (P05622 599-961 limits assumed): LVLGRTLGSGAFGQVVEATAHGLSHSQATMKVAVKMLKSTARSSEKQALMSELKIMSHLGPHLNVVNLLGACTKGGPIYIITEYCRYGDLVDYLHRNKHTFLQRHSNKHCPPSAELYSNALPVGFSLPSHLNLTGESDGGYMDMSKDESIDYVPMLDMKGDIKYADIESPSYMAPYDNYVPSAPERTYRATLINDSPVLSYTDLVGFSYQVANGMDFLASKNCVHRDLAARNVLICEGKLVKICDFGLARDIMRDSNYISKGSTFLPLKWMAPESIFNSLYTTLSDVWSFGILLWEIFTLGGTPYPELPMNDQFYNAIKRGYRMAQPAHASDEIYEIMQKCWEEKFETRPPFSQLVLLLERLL
Put plainly: PDGF receptor tyrosine kinase assay (32P incorporation into glutamate-tyrosine co-polymer). The format is biochemical. Particulars: for inhibition at 50 µM: read-out: PDGFr-TK % Inhibition at 50 µM; for pIC50: read-out: PDGFr-TK IC50.
From the text: as §1

SMILES strings stand for the structures. pIC50: −log10 of the molar value.

T1 sequence (P11362 478-767 limits assumed): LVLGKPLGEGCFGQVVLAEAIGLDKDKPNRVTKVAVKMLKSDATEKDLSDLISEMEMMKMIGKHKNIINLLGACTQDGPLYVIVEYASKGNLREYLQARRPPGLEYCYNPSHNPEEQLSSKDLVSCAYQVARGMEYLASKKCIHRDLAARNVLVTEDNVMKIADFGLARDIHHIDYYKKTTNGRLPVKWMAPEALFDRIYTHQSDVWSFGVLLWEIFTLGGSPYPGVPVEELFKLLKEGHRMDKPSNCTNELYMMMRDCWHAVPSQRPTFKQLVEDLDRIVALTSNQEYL

For the compound `Cn1c(=N)c(-c2ccccc2)cc2cnc(N)nc21` [Example 9, 6-Phenyl-7-imino-8-methyl-7,8-dihydro-pyrido[2,3-d]-pyriminin-2-ylamine], the inhibition (in general, the drop in the measured response relative to a control, in per cent) at 50 µM turned out to be 34% in experiment [1] and 35% in experiment [2].

For `CCn1c(=O)c(-c2c(Cl)cccc2Cl)cc2cnc(SC)nc21` [Example 67, 6-(2,6-Dichlorophenyl)-8-ethyl-2-methylsulfanyl-8H-pyrido[2,3-d]pyrimidin-7-one], the inhibition at 50 µM in experiment [1] came out at 27%; in experiment [2] it was 31%.

In the case of `CCOCCOc1ncc2cc(-c3c(Cl)cccc3Cl)c(=N)n(C)c2n1` [Example 22, 6-(2,6-Dichlorophenyl)-2-(2-ethoxy-ethoxy)-8-methyl-8H-pyrido[2,3-d]pyrimidin-7-ylideneamine], the inhibition at 50 µM in experiment [1] was found to be 17%; in experiment [2], 13%.

`CCn1c(=N)c(-c2ccc(-c3ccccc3)cc2)cc2cnc(Nc3ccccc3)nc21` [Example 123, (6-Biphenyl-4-yl-8-ethyl-7-imino-7,8-dihydro-pyrido[2,3-d]pyrimidin-2-yl)-phenylamine]: the inhibition at 50 µM in experiment [1] worked out at 26%; in experiment [2], 24%.

In the case of `CCn1c(=N)c(-c2ccc3ccccc3c2)cc2cnc(Nc3ccccc3)nc21` [Example 121, (8-Ethyl-7-imino-6-naphthalen-2-yl-7,8-dihydro-pyrido [2,3-d]pyrimidin-2-yl)-phenylamine], in experiment [1], the pIC50 (commonly the negative decadic logarithm of the IC50, by convention in mol/L) was 4.54. Moreover, the inhibition at 50 µM in experiment [2] turned out to be 44%.

On to `Cn1c(=O)c(-c2c(Cl)cccc2Cl)cc2cnc(O)nc21` [Example 24, 6-(2,6-Dichlorophenyl)-2-hydroxy-8-methyl-8H-pyrido[2,3-d]pyrimidin-7-one], for which the inhibition at 50 µM stood at 16% in experiment [1] and 13% in experiment [2].

Take `Cc1cccc(C)c1-c1cc2cnc(N)nc2n(C)c1=N` [Example 7, 6-(2,6-Dimethylphenyl)-7-imino-8-methyl-7,8-dihydro-pyrido[2,3-d]pyrimidin-2-ylamine]: the results for the inhibition at 50 µM in experiment [1] and in experiment [2] were 28% and 42%, respectively.

Consider `CCn1c(=O)c(-c2ccc3ccccc3c2)cc2cnc(Nc3ccccc3)nc21` [Example 122, 8-Ethyl-6-naphthalen-2-yl-2-phenylamino-8H-pyrido[2,3-d]pyrimidin-7-one], for which the results for the pIC50 in experiment [1] and in experiment [2] were 4.70 and 4.48, respectively.

As to `CCn1c(=O)c(-c2ccsc2)cc2cnc(Nc3ccccc3)nc21` [Example 102, 8-Ethyl-2-phenylamino-6-thiophen-3-yl-8H-pyrido[2,3-d]pyrimidin-7-one], the inhibition at 50 µM in experiment [1] was found to be 28%. The pIC50 in experiment [2] is 6.45.

For the compound `CCn1c(=N)c(-c2cccs2)cc2cnc(Nc3ccccc3)nc21` [Example 103, (8-Ethyl-7-imino-6-thiophen-2-yl-7,8-dihydro-pyrido[2,3-d]pyrimidin-2-yl)-phenylamine], the pIC50 is 5.97 in experiment [1] and 6.82 in experiment [2].

For the compound `CCn1c(=N)c(-c2cc(C)cc(C)c2)cc2cnc(Nc3ccccc3)nc21` [Example 117, (6-(3,5-Dimethylphenyl)-8-ethyl-7-imino-7,8-dihydro-pyrido[2,3-d]pyrimidin-2-yl)-2-phenylamine], the figures for the pIC50 in experiment [1] and in experiment [2] were 6.10 and 4.42, respectively.

On to `CCn1c(=N)c(-c2ccccc2)cc2cnc(Nc3ccccc3)nc21` [Example 115, (8-Ethyl-7-imino-6-phenyl-7,8-dihydro-pyrido[2,3-d]-pyrimidin-2-yl)-2-phenylamine], for which the pIC50 was 7.01 in experiment [1] and 6.77 in experiment [2].

With `Cc1ccccc1-c1cc2cnc(N)nc2n(C)c1=N` [Example 8, 6-(2-Methylphenyl)-7-imino-8-methyl-7,8-dihydro-pyrido[2,3-d]pyrimidin-2-ylamine], the pIC50 in experiment [1] and in experiment [2] was 4.32 throughout.

In the case of `CSc1ncc2cc(-c3c(Cl)cccc3Cl)c(=NC(C)=O)n(C)c2n1` [Example 28, N-[6-(2,6-Dichlorophenyl)-8-methyl-2-methylsulfanyl-8H-pyrido[2,3-d]pyrimidin-7-ylidene]-acetamide], the inhibition at 50 µM in experiment [1] and in experiment [2] was 0% throughout.
